We go through three compounds from US11559497B2 (Guangzhou Dazhou Biomedicine Ltd., priority 2020, dated 2023).

Data set [1] can be described thus: Phase 1 clinical study: plasma pharmacokinetics after ketamine transdermal patch. Conditions: for plasma concentration: 28 mg dose; for AUC: AUCall; for AUC(0-inf): AUCinf. Here is the method: Enrollment was planned to achieve participation of up to 14 adult subjects with MDD in the 3 stages of the protocol. Subjects were to be screened within 4 weeks of enrollment. Eligible subjects who provided written consent were to be enrolled into Stage 1 of the study. In Stage 1 of the study, subjects were to receive the low-dose transdermal patch. The amount of residual drug was to be measured and PK analysis conducted for each subject to inform the subsequent dosing. In Stage 2, after a 2 to 4 week washout period, a placebo patch was to be administered. A “deception” protocol was used in order to ensure the subjects remained blinded to the treatment. Placebo administration was followed by a 1 week washout period, after which subjects were to receive the high-dose transdermal patch in Stage 3. The overall study duration from screening until the end of Stage 3 was approximately 60 days, including both inpatient and outpatient portions of the study. The general study design is illustrated in FIG. 3.
The patch was predicted to deliver systemically approximately 20 mg.
For Stage 1, blood samples were collected pre-patch application, and at 2, 6, 12, 24, 28, 32, 48, 96, and 168 hours post-patch application.
Blood samples were collected in tubes containing sodium heparin and stored on ice or room temperature until centrifuged under refrigeration or room temperature for at least 10 minutes at 3,000 revolutions per minute. After centrifugation, plasma was removed, divided into 2 aliquots of approximately 0.6 mL each, frozen, and stored at or below −20° C. Blood was processed to plasma and frozen within 1 hour of collection. Processed frozen plasma samples were transferred on dry ice to the analytical laboratory and were stored at or below −20° C. until bioanalysis was performed.
A non-compartmental analysis (NCA) was used to calculate PK parameters using Phoenix® WinNonlin® 6.4 or later (Certara, USA).

A short description of data set [2]: Reported human pharmacokinetics of ketamine by IV infusion, oral or intranasal route. Conditions: 40-min IV infusion of 35 mg of ketamine. The source says:
There has been very limited data on monitoring HNK pharmacokinetics in humans in a robust approach. […] Also HNK was shown preclinically to have lower potential of AEs.

Data set [3] is described as follows: Prediction of delivered dose and human PK from in vitro permeability and PK linearity. Conditions: predicted.
The next data set deals with NMDA receptor. Conditions: in vitro; Shimoyama et al., 1999; cited from earlier work.

One may read the Cmax as the peak of the concentration-time curve. As usually defined, the Tmax is the time at which the peak concentration occurs. With `NC1(c2ccccc2Cl)CCCC(O)C1=O` (stereo not drawn) [Hydroxynorketamine, hydroxynorketamine], the results for the plasma concentration entry in data set [1] (48 hours post application of tested ketamine patch) and in data set [1] (72 hours post application of tested ketamine patch) were “about 10 ng/ml” and “about 6 ng/ml”, respectively. Moreover, the AUCall was found to be 438 ng·h/mL in data set [1] (Stage 1 (60 cm^2 patch, 24 h, low-dose), Mean); 364 ng·h/mL in data set [1] (Stage 1 (60 cm^2 patch, 24 h, low-dose), Median); 549 ng·h/mL in data set [1] (Stage 3 (20 and 60 cm^2 patches, high-dose), Mean); 488 ng·h/mL in data set [1] (Stage 3 (20 and 60 cm^2 patches, high-dose), Median). For the same compound, the AUCinf in data set [1] (Stage 1, Mean) is 666 ng·h/mL; in data set [1] (Stage 1, Median), 573 ng·h/mL; in data set [1] (Stage 3, Mean) it was 839 ng·h/mL; in data set [1] (Stage 3, Median), 660 ng·h/mL. Besides, the Cmax came to 12.3 ng/mL in data set [1] (Stage 1, Mean); 12.6 ng/mL in data set [1] (Stage 1, Median); 15.7 ng/mL in data set [1] (Stage 3, Mean); 12.8 ng/mL in data set [1] (Stage 3, Median). Further, the Extrap in data set [1] (Stage 1, Mean) stood at 10%; in data set [1] (Stage 1, Median) it was 6%; in data set [1] (Stage 3, Mean) it was 15%; in data set [1] (Stage 3, Median) it was 10%. Further, the T1/2 is 19.3 h in data set [1] (Stage 1, Mean); 17.9 h in data set [1] (Stage 1, Median); 20.2 h in data set [1] (Stage 3, Mean); 19.5 h in data set [1] (Stage 3, Median). For the same compound, the Tmax was 33.0 h in data set [1] (Stage 1, Mean); 32.0 h in data set [1] (Stage 1, Median); 33.5 h in data set [1] (Stage 3, Mean); 29.9 h in data set [1] (Stage 3, Median). For the same compound, the “ratio of AUC of HNK/Ketamine” value is listed as 2.23 in data set [1] (tested ketamine patch) and 0.522 in data set [2] (MDD patients, digitized from Zarate et al.). In addition, the “ratio of Cmax of HNK/ketamine” value in data set [1] (tested ketamine patch) is 1.19; in data set [2] (digitized from Zarate et al.), “about 0.113”. In addition, the “Cmax resulting from about 100 mg dose by ketamine transdermal delivery device” value in data set [3] is given as “around 30 ng/mL”.

A word on the AUC: it is concentration integrated over time. A high value points to more exposure. The AUC(0-inf) is total exposure, with the tail of the curve extrapolated. What is called half-life is the time needed for the level to fall by half in the phase considered. Higher therefore signals slow loss. For the compound `NC1(c2ccccc2Cl)CCCCC1=O` (stereo not drawn) [Norketamine, norketamine], the Extrap is listed as 12% in data set [1] (Stage 1, Mean); 11% in data set [1] (Stage 1, Median); 7% in data set [1] (Stage 3, Mean); 7% in data set [1] (Stage 3, Median). The AUC turned out to be 377 ng·h/mL in data set [1] (human, plasma, other: transdermal patch, 20 mg, Stage 1 (60 cm^2 patch, 24 h, low-dose), Mean); 328 ng·h/mL in data set [1] (human, plasma, other: transdermal patch, 20 mg, Stage 1 (60 cm^2 patch, 24 h, low-dose), Median); 486 ng·h/mL in data set [1] (human, plasma, other: transdermal patch, 40 mg, Stage 3 (20 and 60 cm^2 patches, high-dose), Mean); 387 ng·h/mL in data set [1] (human, plasma, other: transdermal patch, 40 mg, Stage 3 (20 and 60 cm^2 patches, high-dose), Median). Besides, the AUC(0-inf) was 420 ng·h/mL in data set [1] (human, plasma, other: transdermal patch, 20 mg, Stage 1, Mean); 367 ng·h/mL in data set [1] (human, plasma, other: transdermal patch, 20 mg, Stage 1, Median); 624 ng·h/mL in data set [1] (human, plasma, other: transdermal patch, 40 mg, Stage 3, Mean); 500 ng·h/mL in data set [1] (human, plasma, other: transdermal patch, 40 mg, Stage 3, Median). For the same compound, the Cmax in data set [1] (human, plasma, other: transdermal patch, 20 mg, Cmax, Stage 1, Mean) stood at 11.1 ng/mL; in data set [1] (human, plasma, other: transdermal patch, 20 mg, Cmax, Stage 1, Median), 9.85 ng/mL; in data set [1] (human, plasma, other: transdermal patch, 40 mg, Cmax, Stage 3, Mean), 13.4 ng/mL; in data set [1] (human, plasma, other: transdermal patch, 40 mg, Cmax, Stage 3, Median), 10.3 ng/mL. For the same compound, the half-life in data set [1] (human, plasma, other: transdermal patch, 20 mg, T1/2, Stage 1, Mean) was 19.4 h; in data set [1] (human, plasma, other: transdermal patch, 20 mg, T1/2, Stage 1, Median), 21 h; in data set [1] (human, plasma, other: transdermal patch, 40 mg, T1/2, Stage 3, Mean), 17.9 h; in data set [1] (human, plasma, other: transdermal patch, 40 mg, T1/2, Stage 3, Median), 19.2 h. Moreover, the Tmax in data set [1] (human, plasma, other: transdermal patch, 20 mg, Tmax, Stage 1, Mean) is 28.4 h; in data set [1] (human, plasma, other: transdermal patch, 20 mg, Tmax, Stage 1, Median) it was 28 h; in data set [1] (human, plasma, other: transdermal patch, 40 mg, Tmax, Stage 3, Mean), 31.1 h; in data set [1] (human, plasma, other: transdermal patch, 40 mg, Tmax, Stage 3, Median), 28 h. Also, the “ratio of AUC of NK/Ketamine” value amounted to 1.40 in data set [1] (tested ketamine patch) and 0.989 in data set [2] (digitized literature data). For the same compound, the “ratio of Cmax of NK/ketamine” value was 1.08 in data set [1] (tested ketamine patch) and “about 0.362” in data set [2] (digitized literature data).

Consider `CN[C@]1(c2ccccc2Cl)CCCCC1=O` [S-ketamine], for which, in the data set on NMDA receptor, the “greater affinity than R-ketamine for NMDA receptor binding” value is on record as approximately 4 fold.
